According to ChEMBL document CHEMBL1201862, “PubChem BioAssay data set” (2004):
Activity calls are given as the source filed them.

Key:
[1] = microbe, parasite or virus in culture; assay type: functional; conditions: Mycobacterium tuberculosis
[2] = biological target: Neurotensin receptor type 1 (Homo sapiens, UniProt P30989); assay type: functional;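 note: Image-based confirmatory dose-response assay measuring agonist activity at NTR1; NTR1-expressing U2OS osteosarcoma cells imaged for beta-arrestin GFP spot formation; agonist potency where compounds increase beta-arrestin recruitment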
[3] = biological target: Heat shock protein HSP 90-alpha (Homo sapiens, UniProt P07900); assay type: functional, organism-based
Vero = assay: cells; assay type: functional; conditions: Chlorocebus sabaeus
Melanocortin receptor 4 = Melanocortin receptor 4 (Homo sapiens, UniProt P32245); assay: MC4R antagonist potency on cAMP, dose response, cell-based, TR-FRET, biased antagonists (AID 602298); assay type: functional;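 note: antagonist potency against agonist-stimulated cAMP production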
[4] = Shn3 3'UTR reporter inhibitors, dose response, cell-based, Clone20 osteoblasts, firefly luciferase, cherry-picked (AID 624132); assay type: functional;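 note: firefly luciferase luminescence from reporter carrying the Shn3 3'UTR in osteoblasts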
[5] = HepG2 cell cytotoxicity, dose response, cytotoxicity control for Shn3 inhibitor project, CellTiter-Glo, cherry-picked (AID 624134); assay type: functional, cell-based
[6] = control 3'UTR Renilla luciferase suppression, dose response, counter-screen for Shn3 inhibitor project, cell-based, Clone20-Shn3RL, cherry-picked (AID 624133); assay type: functional
[7] = nonselective inhibitors of cellular cAMP signaling, dose response, counter-screen for MC4R biased antagonist project, cell-based, TR-FRET cAMP detection (AID 602305); assay type: functional;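 note: U2OS cells stimulated with forskolin near its EC80 as the cAMP inducer; potency is for inhibition of forskolin-stimulated cAMP signaling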
[8] = Fluorescence-based cell-based high throughput dose response assay for inhibitors of the interaction of nucleotide-binding oligomerization domain containing 2 (NOD2) and the receptor-interacting serine-threonine kinase 2 (RIPK2).; assay type: functional; conditions: Homo sapiens
[9] = biological target: Glucose-6-phosphate 1-dehydrogenase (Homo sapiens, UniProt P11413); assay: human G6PD enzyme inhibitors, dose response, selectivity assay for P. falciparum G6PD inhibitor project, biochemical, fluorescence (AID 504792); assay type: functional
Beta Lactamase = Beta Lactamase (Pseudomonas aeruginosa, UniProt Q932Y6); assay: beta-lactamase reporter inhibitor potency, dose response, artefact control for NOD2-RIPK2 interaction inhibitor project, BLA reporter cells, FRET fluorescence (AID 651552); assay type: functional, cell-based
[10] = biological target: DNA (cytosine-5)-methyltransferase 1 (Homo sapiens, UniProt P26358); assay: DNMT1 methyltransferase inhibitors, confirmation, biochemical, fluorescent molecular beacon (AID 602386); assay type: functional
[11] = Luminescence Cell-Based Dose Confirmation HTS to Identify Activators of 5'UTR Stem-Loop Driven Alpha-Synuclein mRNA Translation in H4 Neuroglioblastoma Cells. [Related pubchem assays: 1829 (Project Summary), 1814 (Primary HTS)]; assay type: functional
[12] = Luminescence Cell-Based Dose Response HTS to Identify Activators of Luciferase Translation or Activity in H4 […] Cells. [Related pubchem assays: 1829 (Project Summary), 1814 (Primary HTS)]; assay type: functional
H4 = assay: Luminescence Cell-Based Dose Response HTS to Identify Activators of 5'UTR Stem-Loop Driven Prion Protein mRNA Translation in H4 Neuroglioblastoma Cells. [Related pubchem assays: 1829 (Project Summary), 1814 (Primary HTS)]; assay type: functional; conditions: Homo sapiens
[13] = biological target: Matrix metalloproteinase-14 (Homo sapiens, UniProt P50281); assay: Dose Response confirmation of uHTS hits for a small molecule inhibitors of MT1-MMP activation in a fluorescence assay set 2.; assay type: functional
[14] = biological target: T1, High affinity choline transporter 1 (Homo sapiens, UniProt Q9GZV3); assay: CHT inhibitors, dose response, cell-based, 5-point CRC, membrane potential dye (AID 504840); assay type: functional
T1 sequence (Q9GZV3 whole entry): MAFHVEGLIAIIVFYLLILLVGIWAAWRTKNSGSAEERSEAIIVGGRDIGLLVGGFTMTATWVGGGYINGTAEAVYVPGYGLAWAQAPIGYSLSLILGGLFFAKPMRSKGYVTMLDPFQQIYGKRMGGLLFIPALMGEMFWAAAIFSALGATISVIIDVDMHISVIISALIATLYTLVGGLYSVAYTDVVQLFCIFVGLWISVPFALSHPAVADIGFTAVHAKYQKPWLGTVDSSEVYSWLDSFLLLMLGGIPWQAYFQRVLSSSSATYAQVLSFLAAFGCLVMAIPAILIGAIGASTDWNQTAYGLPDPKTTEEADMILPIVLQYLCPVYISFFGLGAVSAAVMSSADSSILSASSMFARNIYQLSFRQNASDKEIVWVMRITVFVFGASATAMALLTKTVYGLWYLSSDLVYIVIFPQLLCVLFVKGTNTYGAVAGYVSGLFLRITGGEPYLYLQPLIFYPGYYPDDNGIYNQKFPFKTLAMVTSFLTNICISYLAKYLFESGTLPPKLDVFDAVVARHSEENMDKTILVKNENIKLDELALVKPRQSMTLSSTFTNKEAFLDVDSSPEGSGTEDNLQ

[15] = biological target: T1, High affinity choline transporter 1; assay: CHT inhibitors, dose response, cell-based, 10-point CRC, membrane potential dye (AID 588401); assay type: functional;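 note: membrane potential dye fluorescence of choline-evoked depolarization via CHT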
[16] = HEK293T cell cytotoxicity, dose response, cytotoxicity control for HIV Vif inhibitor project, cherry-picks (AID 652208); assay type: functional, cell-based
[17] = miR-122 activators in hepatoma reporter cells, dose response, cell-based, Huh7 psiCHECK-miR122, Renilla luciferase, cherry-picked (AID 651956); assay type: functional;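 note: huh7 hepatoma cells stably carrying a psiCHECK-2 miR-122 sensor plasmid; renilla luciferase signal reporting endogenous miR-122 activity after 48 h compound exposure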
[18] = HEK293T cytotoxicity, dose response, cytotoxicity control for miR-122 modulator project, cell-based, inhibitor set, cherry-pick, set 2 (AID 720697); assay type: functional
[19] = HEK293T cytotoxicity, dose response, cytotoxicity control for miR-122 modulator project, cell-based, activator set, cherry-pick (AID 720690); assay type: functional;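 note: HEK293T human cells scored for general mammalian cytotoxicity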

Beta Lactamase, sequence (Q932Y6 whole entry): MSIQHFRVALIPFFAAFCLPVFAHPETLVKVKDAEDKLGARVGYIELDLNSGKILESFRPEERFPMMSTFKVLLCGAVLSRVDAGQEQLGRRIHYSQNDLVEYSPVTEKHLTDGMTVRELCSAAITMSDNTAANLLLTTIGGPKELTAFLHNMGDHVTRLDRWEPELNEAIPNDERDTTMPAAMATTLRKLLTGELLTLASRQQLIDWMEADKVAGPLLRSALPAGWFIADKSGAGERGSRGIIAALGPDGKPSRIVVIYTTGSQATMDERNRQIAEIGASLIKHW
Glucose-6-phosphate 1-dehydrogenase, sequence (P11413 whole entry): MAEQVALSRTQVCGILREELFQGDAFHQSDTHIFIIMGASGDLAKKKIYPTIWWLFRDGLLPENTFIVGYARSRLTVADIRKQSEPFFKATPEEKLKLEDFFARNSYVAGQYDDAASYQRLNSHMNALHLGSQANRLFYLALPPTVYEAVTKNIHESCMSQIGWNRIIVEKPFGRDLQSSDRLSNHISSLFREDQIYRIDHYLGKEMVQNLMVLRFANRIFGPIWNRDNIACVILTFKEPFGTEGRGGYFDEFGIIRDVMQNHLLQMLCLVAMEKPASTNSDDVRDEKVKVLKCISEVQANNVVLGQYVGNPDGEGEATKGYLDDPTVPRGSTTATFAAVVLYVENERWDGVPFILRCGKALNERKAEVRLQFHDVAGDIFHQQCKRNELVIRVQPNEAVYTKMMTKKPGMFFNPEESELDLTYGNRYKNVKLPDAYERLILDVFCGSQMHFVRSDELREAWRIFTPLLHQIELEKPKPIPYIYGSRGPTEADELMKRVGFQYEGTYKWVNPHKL
Neurotensin receptor type 1, sequence (P30989 whole entry): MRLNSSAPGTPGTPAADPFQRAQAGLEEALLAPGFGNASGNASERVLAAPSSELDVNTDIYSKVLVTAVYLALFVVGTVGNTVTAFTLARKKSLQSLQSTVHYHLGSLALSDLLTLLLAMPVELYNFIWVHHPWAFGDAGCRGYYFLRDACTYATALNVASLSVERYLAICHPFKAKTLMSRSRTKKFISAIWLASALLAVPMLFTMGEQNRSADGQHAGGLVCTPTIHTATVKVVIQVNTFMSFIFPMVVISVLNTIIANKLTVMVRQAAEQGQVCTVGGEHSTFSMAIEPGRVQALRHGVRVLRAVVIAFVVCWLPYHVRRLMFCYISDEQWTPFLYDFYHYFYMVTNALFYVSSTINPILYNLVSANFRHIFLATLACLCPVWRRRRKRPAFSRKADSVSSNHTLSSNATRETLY
Melanocortin receptor 4, sequence (P32245 whole entry): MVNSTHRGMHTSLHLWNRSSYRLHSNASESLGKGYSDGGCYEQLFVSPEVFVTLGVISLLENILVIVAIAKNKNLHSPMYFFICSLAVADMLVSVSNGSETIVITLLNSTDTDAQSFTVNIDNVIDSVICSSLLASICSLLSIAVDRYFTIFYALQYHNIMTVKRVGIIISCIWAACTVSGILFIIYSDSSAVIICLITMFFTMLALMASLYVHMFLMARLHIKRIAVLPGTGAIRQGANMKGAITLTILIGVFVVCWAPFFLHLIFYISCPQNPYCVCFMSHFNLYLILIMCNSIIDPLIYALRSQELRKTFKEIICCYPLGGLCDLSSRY
DNA (cytosine-5)-methyltransferase 1, sequence (P26358 whole entry): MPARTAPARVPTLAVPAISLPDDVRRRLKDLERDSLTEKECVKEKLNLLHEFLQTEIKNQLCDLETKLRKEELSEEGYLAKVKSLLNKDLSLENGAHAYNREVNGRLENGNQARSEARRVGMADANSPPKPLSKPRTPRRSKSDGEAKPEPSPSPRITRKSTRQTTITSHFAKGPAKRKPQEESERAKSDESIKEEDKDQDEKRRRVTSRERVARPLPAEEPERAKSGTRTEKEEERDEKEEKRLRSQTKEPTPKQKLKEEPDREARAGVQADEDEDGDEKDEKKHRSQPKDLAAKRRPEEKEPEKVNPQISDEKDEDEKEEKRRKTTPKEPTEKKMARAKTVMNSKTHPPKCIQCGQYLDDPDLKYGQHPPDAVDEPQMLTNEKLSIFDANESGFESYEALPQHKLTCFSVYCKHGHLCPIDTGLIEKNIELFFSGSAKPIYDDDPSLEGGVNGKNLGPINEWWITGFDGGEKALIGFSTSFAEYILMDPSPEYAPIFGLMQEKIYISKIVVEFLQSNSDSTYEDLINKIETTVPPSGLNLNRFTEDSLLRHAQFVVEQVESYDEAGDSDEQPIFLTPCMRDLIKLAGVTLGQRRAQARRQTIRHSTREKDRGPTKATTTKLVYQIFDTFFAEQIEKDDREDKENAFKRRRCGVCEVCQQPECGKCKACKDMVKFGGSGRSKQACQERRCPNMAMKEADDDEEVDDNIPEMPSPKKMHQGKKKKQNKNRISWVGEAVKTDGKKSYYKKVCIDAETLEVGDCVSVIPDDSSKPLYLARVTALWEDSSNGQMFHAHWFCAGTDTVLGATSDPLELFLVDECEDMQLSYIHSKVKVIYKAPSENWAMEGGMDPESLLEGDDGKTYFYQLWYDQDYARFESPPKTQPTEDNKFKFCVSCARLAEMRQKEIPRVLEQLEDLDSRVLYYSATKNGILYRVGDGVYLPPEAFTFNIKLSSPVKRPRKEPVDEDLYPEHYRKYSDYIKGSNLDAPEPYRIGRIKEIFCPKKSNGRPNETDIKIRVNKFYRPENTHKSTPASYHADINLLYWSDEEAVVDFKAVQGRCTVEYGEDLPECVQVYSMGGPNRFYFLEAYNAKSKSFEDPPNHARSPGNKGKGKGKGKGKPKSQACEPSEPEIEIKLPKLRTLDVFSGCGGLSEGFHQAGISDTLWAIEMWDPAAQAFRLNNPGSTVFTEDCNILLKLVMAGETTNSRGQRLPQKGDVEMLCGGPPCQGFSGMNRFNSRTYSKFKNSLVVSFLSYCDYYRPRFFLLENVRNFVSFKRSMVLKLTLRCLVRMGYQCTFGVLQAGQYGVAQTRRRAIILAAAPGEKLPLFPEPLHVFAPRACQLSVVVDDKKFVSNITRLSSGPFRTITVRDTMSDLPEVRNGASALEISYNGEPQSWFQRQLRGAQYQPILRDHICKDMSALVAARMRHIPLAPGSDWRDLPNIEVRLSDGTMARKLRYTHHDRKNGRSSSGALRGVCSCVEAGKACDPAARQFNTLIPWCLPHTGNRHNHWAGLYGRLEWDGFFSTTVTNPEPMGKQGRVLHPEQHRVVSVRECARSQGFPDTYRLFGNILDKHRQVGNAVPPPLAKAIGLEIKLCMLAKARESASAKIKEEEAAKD

With O=C(c1ccc(Br)cc1)C(CN1CCOCC1)c1ccccc1 (centres undefined) as the molecule, how does the CC50 [1] read?
The CC50 was > 40 µM (active).

What about the EC50 [2] of the same molecule?
Its EC50 is 33 µM (inactive).

What about the AC50 [3] of the same molecule?
The AC50 was 2.85 µM (active).

And the CC50 (Vero)?
Its CC50 is > 25 µM (active).

And the IC50 (Melanocortin receptor 4)?
Its IC50 is > 64.6 µM (inactive).

What about the AC50 [4] of the same molecule?
Its AC50 is 9.4 µM (active).

What about the AC50 [5] of the same molecule?
Its AC50 is 21.6 µM (active).

And the AC50 [6]?
The AC50 was 10.6 µM (active).

What about the IC50 [7] of the same molecule?
The IC50 was > 64.6 µM (inactive).

What about the IC50 [8] of the same molecule?
The IC50 was 7.78 µM (active).

Which results are given for Clc1nssc1=Nc1nncs1?
IC50 [9]: 42.3 µM (inactive); IC50 [8]: 6.62 µM (active); IC50 (Beta Lactamase): 49.8 µM (inactive)

For CCCCCCCCc1nnc(NC(=O)c2ccco2)s1, which IC50 [10] is on record?
Its IC50 is 42.4 µM (active).

Which EC50 [11] does the source give for CC[n+]1c(/C=C/Nc2ccccc2)sc2ccccc21 here?
The EC50 was > 120 µM (not active).

And the EC50 [12]?
Its EC50 is > 120 µM (not active).

What about the EC50 (H4) of the same molecule?
The EC50 was > 120 µM (not active).

And the AC50 [4]?
The AC50 was 2.06 µM (active).

What about the AC50 [5] of the same molecule?
The AC50 was > 70 µM (inactive).

What about the AC50 [6] of the same molecule?
Its AC50 is 5.83 µM (active).

What about the IC50 [13] of the same molecule?
The IC50 was 23.3 µM (inactive).

For Cc1ccc(NC(=O)CN2C(=O)NC3(CCc4ccccc43)C2=O)cc1Cl (centres undefined), which IC50 [14] is on record?
Its IC50 is 9.3 µM (active).

What about the IC50 [15] of the same molecule?
Its IC50 is 11.2 µM (active).

Which AC50 [16] does the source give for CC(=O)Nc1ccc(NC(=O)COc2ccccc2C(=O)Nc2cccc(Cl)c2Cl)cc1 here?
Its AC50 is 8.25 µM (active).

With COc1cc(NS(=O)(=O)c2ccc(NC(=O)c3ccc(Cl)cc3Cl)cc2)ncn1 as the molecule, how does the IC50 [14] read?
Its IC50 is 4.47 µM (active).

What about the IC50 [15] of the same molecule?
The IC50 was 9.46 µM (active).

Which AC50 [17] does the source give for COc1ccc(OC)c(-c2cc(C3CCN(c4cc(Cl)nc(N)n4)CC3)[nH]n2)c1 here?
Its AC50 is 42.9 µM (active).

What about the AC50 [18] of the same molecule?
The AC50 was 18.1 µM (active).

And the AC50 [19]?
The AC50 was 16.7 µM (active).
